{"source": "patent US20190030036A1", "about": "“PHOSPHODIESTERASE INHIBITOR TREATMENT” (Cyrano Therapeutics, Inc., priority 2013, published 2019)", "key": {"[1]": {"tested_on": "patients with hyposmia", "assay": "Subjective taste and smell response, intranasal theophylline pilot study (Example 7)", "conditions": "intranasal theophylline 20 μg per naris once a day, four weeks; six of first eight patients", "from_the_text": "These patients were previously treated with oral theophylline or were switched from oral theophylline to intranasal theophylline at the start of the study. Selection for inclusion in the intranasal study was based upon several criteria. 1) non-response to oral theophylline; 2) severe side effects with oral theophylline that prevented reaching a dose of sufficient strength to restore smell function; and/or 3) preference for intranasal medication over oral medication.\nSubjective responses to treatment were obtained independent of any interaction with the clinical staff by using a scale of 0-100 to measure response of taste function and smell function to treatment with 0 indicating no response, 100 indicating return to normal function and intermediate numbers indicating an intermediate response.\nThe patients inserted a plastic syringe containing 0.4 ml of fluid (20 μg theophylline) into each naris once a day. […] The drug dose was delivered through a plastic nipple which fitted snugly onto the filled syringe which was attached directly to the nipple. One nipple was supplied for each set of two syringes in each application kit. The patient fitted the nipple on one syringe, placed the nipple securely into the lower naris and injected the contents of the syringe directly into the lower vault of one naris accompanied by a modest inhalation. […]"}, "[2]": {"assay": "Body weight (Example 8)", "type": "in vivo, human"}, "[3]": {"tested_on": "patients with hyposmia and hypogeusia", "assay": "Olfactometry (DT, RT, ME, HR for 4 odors) (Example 8)", "type": "in vivo, human", "conditions": "intranasal theophylline vs before treatment or after oral theophylline", "description": "Measurements included determination of detection thresholds (DTs), recognition thresholds (RTs), magnitude estimation (ME), and hedonic response (HR) for 4 odors (e.g., pyridine [dead fish], nitrobenzene [bitter almond], thiophene [petroleum], and amyl acetate [banana oil]) (olfactometry) and for 4 tastants (e.g., sodium chloride [salt], sucrose [sweet], […] [sour], and urea [bitter]) (gustometry)."}, "[4]": {"tested_on": "patients with hyposmia", "assay": "Subjective overall change in smell function; open trial of oral theophylline", "type": "in vivo, human", "method": "Independently, patients were also required to grade their ability to smell daily on a scale from 0-100, with 0 reflecting no overall smell function over a 24 hour period, 100 reflecting normal overall smell function over this period and numbers from 0-100 reflecting their estimation of their overall ability to smell odors over this period.\nAfter determination of hyposmia, patients were treated in an open label, fixed design, controlled open trial. Patients were given an oral extended release theophylline in divided daily doses taken in the middle of breakfast and lunch. All patients were initially given 200 mg of theophylline; changes in this dose were made based upon subjective responses to therapy. If at a subsequent return visit, patients reported ≥5% subjective improvement in overall smell function, they continued on this same dose of theophylline and were reevaluated after four to six months of continued treatment. Results from any subsequent return from these improved patients were not included in any subsequent data report. All subsequent comparisons between treated and untreated patients were made only between those patients continuing in the study compared to their own measurements obtained in the untreated state. If patients reported <5% subjective improvement, their theophylline dose was increased by 200 mg daily and they were scheduled for retesting at the study site after two to four months at this new dosage. For patients that reported <5% improvement, this sequence continued until patients reached 800 mg of theophylline, at which time the study was considered completed.\nPatients returned for reevaluation after two to four months of treatment. Measurements of blood serum theophylline were measured by a fluorescence polarization assay (Abbott, Chicago, Ill.). At this time, subjective changes in smell function were measured independently (compared to patient's memory of previous normal smell function monitored by use of the patients' daily measurements) using the scale from −100−0-+100 previously described. After independently recording their subjective responses, smell function was measured for all four odors with DT, RT, ME and H determined without recourse to prior measurements.\nSubjective overall changes in smell acuity were reported by telephone and by FAX or email at two—four month intervals after treatment was initiated using the standardized form in which they measured daily changes in smell acuity using the −100−0-+100 scale as noted above. Using the same criteria noted above, if at their initial two—four month call-in they reported improvement in smell acuity of ≥5%, they continued at 200 mg and returned to the study site at four—six months on this treatment dose. If they reported improvement in smell acuity of <5% their dose of theophylline was increased to 400 mg for an additional two—four months and they then called the study site at the end of this period."}, "[5]": {"tested_on": "patients with hyposmia and hypogeusia", "quoted_text": "Subjective changes in smell and taste function under each study condition were measured by questionnaire before measurements of smell or taste function. Responses were graded on a scale from 0 to 100, with 0 reflecting no subjective response in overall sensory function; 100, return to normal sensory function; and values between 0 and 100 intermediate responses. Overall sensory function was defined as the ability to smell all odors and identify all tastants, although response intensity varied.\nIn this prior trial, oral theophylline was administered daily in 2 divided doses (at breakfast and lunch) of 200, 400, 600, or 800 mg for 2 to 12 months of treatment. Treatment was divided into 2- to 4-month periods, at which time patients returned to The Clinic for measurements of subjective sensory responses, olfactometry, gustometry, serum theophylline level, and body weight.\nEach patient delivered the theophylline dose in each naris once daily throughout the study. Patients underwent evaluation 1, 2, and 4 weeks during drug use with the same measurements used for the oral study.\nValues for the oral trial were taken from the last measurements made before discontinuation of oral drug treatment and before initiation of the intranasal trial. […] Values for the intranasal pilot study were taken from measurements obtained after completion of 4 weeks of intranasal treatment."}, "[6]": {"tested_on": "patients with hyposmia", "assay": "Side effects of oral theophylline (Example 1)", "type": "in vivo, human", "conditions": "oral theophylline 200-800 mg daily in divided doses in middle of meals", "description": "Patients were required to take the drug in divided doses in middle of meals (breakfast and lunch)."}, "[7]": {"tested_on": "patients with hyposmia and hypogeusia", "assay": "Adverse effects of intranasal theophylline (Example 8)", "type": "in vivo, human", "conditions": "intranasal theophylline 20 μg/d in each naris, 4 weeks", "quoted_text": "Under each condition, we performed subjective evaluations of taste and smell functions, quantitative measurements of taste (gustometry) and smell (olfactometry), and measurements of serum theophylline level and body weight.\nThe intranasal administration device was a calibrated 1 mL syringe fitted with a nozzle that fit comfortably into the anterior naris (Wolfe Tory Medical, Inc) and loaded under sterile conditions with 20 μg of theophylline methylpropyl paraben in a 0.4-mL saline solution (Foundation Care). Patients were instructed to direct the spray superiorly into the nasal cavity but not posteriorly into the nasopharynx. This technique was practiced before study initiation with sterile saline."}, "[8]": {"tested_on": "hyposmic patients", "assay": "Smell acuity in open label trial of inhalable/nasal PDE inhibitor (Examples 3, 4)", "type": "in vivo, human", "conditions": "nasal theophylline, not more than 500 μg, 1 month", "method": "Hyposmic patients for whom the etiology of smell loss is not associated with head injury or allergic rhinitis are enrolled in an open label trial of inhalable theophylline. Patients are started at an initial dose of not more than 500 μg formulated as a liquid spray or dry powder to be delivered as a metered dose. Initially only local patients are enrolled so that quicker dose titration is achieved. Groups of 5 patients are started on not more than 500 μg of theophylline and continued for 1 month.\nPatients are tested for improvement in smell acuity using the standard forced choice technique using four odors as described in Example 1. Additionally, subjective measurements of smell function are obtained using a scale from 0-100 as described in Example 1. Blood samples are also drawn to ascertain blood theophylline level to gauge its relationship to the expected recovery of smell.\nHyposmic patients for whom the etiology of smell loss is not associated with head injury or allergic rhinitis are enrolled in an open label trial of an inhalable PDE1 inhibitor. […]"}}, "note": "Where two headings read alike, the source gives them in different places.", "data": [{"smiles": "Cn1c(=O)c2[nH]cnc2n(C)c1=O", "note": "[theophylline]", "values": [{"measurement": "patients with subjective improvement in smell function", "setting": "[1]", "value": 75, "unit": "%"}, {"measurement": "mean (SEM) weight increase from pretreatment values", "setting": "[2]; intranasal theophylline 20 μg/d in each naris", "value": "2.5 (0.5) kg"}, {"measurement": "mean (SEM) weight increase from pretreatment values", "setting": "[2]; oral theophylline 200 to 800 mg/d", "value": "1.5 (0.4) kg"}, {"measurement": "DTs and RTs for each odor", "setting": "[3]", "value": "lower (more sensitive)"}, {"measurement": "Magnitude estimations for each odor", "setting": "[3]", "value": "higher (more intense)"}, {"measurement": "patients improved ≥5% (subjective smell function)", "setting": "[4]; oral theophylline 200 mg daily, two-six months, 199 returning patients", "value": 17.1, "unit": "%"}, {"measurement": "improved patients who considered their smell function had returned to normal", "setting": "[4]; oral theophylline 200 mg daily, of 34 improved patients", "value": 26.5, "unit": "%"}, {"measurement": "non-returning patients reporting >5% improvement", "setting": "[4]; oral theophylline 200 mg, 15 non-returning patients", "value": 46.7, "unit": "%"}, {"measurement": "improved non-returning patients reporting a return to normal", "setting": "[4]; oral theophylline 200 mg, non-returning patients", "value": 14.3, "unit": "%"}, {"measurement": "patients improved ≥5% (subjective smell function)", "setting": "[4]; oral theophylline 400 mg daily, two-six months, 120 patients", "value": 29.2, "unit": "%"}, {"measurement": "improved patients who considered their smell function had returned to normal", "setting": "[4]; oral theophylline 400 mg daily, of 35 improved patients", "value": 8.6, "unit": "%"}, {"measurement": "patients improved ≥5% (subjective smell function)", "setting": "[4]; oral theophylline 600 mg daily, two-12 months, 160 patients", "value": 41.2, "unit": "%"}, {"measurement": "patients who considered their smell function had returned to normal", "setting": "[4]; oral theophylline 600 mg daily, 17 patients", "value": 10.6, "unit": "%"}, {"measurement": "patients improved ≥5% (subjective smell function)", "setting": "[4]; oral theophylline 800 mg daily, two-12 months, 28 patients", "value": 53.6, "unit": "%"}, {"measurement": "patients who considered their smell function had returned to normal", "setting": "[4]; oral theophylline 800 mg daily, three patients", "value": 33, "unit": "%"}, {"measurement": "improved patients reporting smell function returned to normal", "setting": "[4]; oral theophylline 200-600 mg, Type III hyposmia", "value": 60, "unit": "%"}, {"measurement": "patients reporting >5% improvement", "setting": "[4]; oral theophylline 200-600 mg, eight patients with Type III hyposmia", "value": 62.5, "unit": "%"}, {"measurement": "patients reporting >5% improvement", "setting": "[4]; oral theophylline 200-800 mg, 96 patients with Type I hyposmia", "value": 33.3, "unit": "%"}, {"measurement": "patients reporting >5% improvement", "setting": "[4]; oral theophylline 200-800 mg, 208 patients with Type II hyposmia", "value": 62, "unit": "%"}, {"measurement": "improved patients reporting smell function returned to normal", "setting": "[4]; oral theophylline 200-800 mg, Type I hyposmia", "value": 15.6, "unit": "%"}, {"measurement": "improved patients reporting smell function returned to normal", "setting": "[4]; oral theophylline 200-800 mg, Type II hyposmia", "value": 20.2, "unit": "%"}, {"measurement": "responsive patients who considered smell function returned to normal levels", "setting": "[4]; oral theophylline, 34 of 157", "value": 21.7, "unit": "%"}, {"measurement": "patients subjectively responsive to treatment", "setting": "[4]; oral theophylline, 157 of the 312 patients", "value": 50.3, "unit": "%"}, {"measurement": "all patients in the study who considered smell function returned to normal", "setting": "[4]; oral theophylline, all 312 patients", "value": 10.9, "unit": "%"}, {"measurement": "earliest time improvement was measured", "setting": "[5]; intranasal theophylline", "value": 1, "unit": "week"}, {"measurement": "improvement in taste and smell functions compared with oral treatment", "setting": "[5]; intranasal theophylline 20 μg/d in each naris, 4 weeks", "value": 2, "unit": "fold"}, {"measurement": "patients reporting overall improvement in taste and smell functions", "setting": "[5]; intranasal theophylline 20 μg/d in each naris, 4 weeks, 10 patients", "value": 8, "unit": "patients"}, {"measurement": "earliest time improvement was measured", "setting": "[5]; oral theophylline", "value": 2, "unit": "months"}, {"measurement": "patients reporting overall increased taste and smell function", "setting": "[5]; oral theophylline 200 to 800 mg/d, 2 to 12 months, 10 patients", "value": 6, "unit": "patients"}, {"measurement": "Side effects", "setting": "[6]", "value": "generally minimal"}, {"measurement": "adverse effects", "setting": "[7]", "value": "No adverse effects"}, {"measurement": "recovery of smell acuity compared with oral administration", "setting": "[8]", "value": "at least an equivalent recovery of smell acuity"}]}]}
